The Ki is the equilibrium dissociation constant of an inhibitor or competing ligand from its target. As usually defined, the IC50 is the concentration that inhibits the measured activity by half.

13 molecules from ChEMBL document CHEMBL1141223, “Potent Dmt-Tic pharmacophoric delta- and mu-opioid receptor antagonists” (J Med Chem, 2005) can be followed below.

Assay [1] deals with Mu-type opioid receptor (Rattus norvegicus, UniProt P33535). Description: Displacement of [3H]DAMGO from mu opioid receptor expressed in rat brain synaptosomal membranes. The assay is classed as cell membranes, Sprague-Dawley, Membrane. (In general: Displacement assays read how much labelled ligand stays bound in the presence of the test substance.)
The target in assay [2] is T1, Delta-type opioid receptor (Mus musculus, UniProt P32300). Description: Agonistic activity at delta opioid receptor in mouse vas deferens. It is filed as functional, tissue-based.
Assay [3] concerns the target Mu-type opioid receptor (Cavia porcellus) (UniProt P97266). Description: Maximal inhibition of muscle contraction in guinea pig ileum at 10000 nM. The assay is classed as functional, tissue-based. The arrangement: scale not given: the % may be the effect or the level left.
Assay [4] addresses Delta-type opioid receptor (Rattus norvegicus, UniProt P33533). Description: Displacement of [3H]deltorphin-II from delta opioid receptor in rat brain synaptosomal membranes. The assay is classed as cell membranes, Sprague-Dawley, Membrane.
In assay [5] the target is Opioid receptors; mu & delta (Rattus norvegicus) (UniProt P33533+P33535). Description: Selectivity ratio of rat mu opioid receptor over rat delta opioid receptor. The assay is classed as protein assay.
The target of assay [6] is T1, Delta-type opioid receptor. Description: Displacement of deltorphin-II from delta opioid receptor in mouse vas deferens. Conditions: read-out: pA2 (converted).
Assay [7] has as its target Delta-type opioid receptor (Mus musculus) (UniProt P32300). Description: Maximal inhibition of muscle contraction in mouse vas deferens at 10000 nM. The assay is classed as functional, tissue-based. The arrangement: scale not given: the % may be the effect or the level left. As to conditions: Muscle tissue.
The target in assay [8] is T2, Mu-type opioid receptor (Cavia porcellus, UniProt P97266). Description: Agonistic activity at mu opioid receptor in myenteric plexus longitudinal muscle of guinea pig ileum. The assay is classed as functional, tissue-based, Hartley.
Assay [9] addresses T2, Mu-type opioid receptor. Description: Displacement of endomorphin-2 from mu opioid receptor in guinea pig ileum. Conditions: read-out: pA2 (converted). It is filed as tissue-based, Hartley.

SMILES strings stand for the structures.

Delta-type opioid receptor (Rattus norvegicus, UniProt P33533), sequence (P33533 whole entry): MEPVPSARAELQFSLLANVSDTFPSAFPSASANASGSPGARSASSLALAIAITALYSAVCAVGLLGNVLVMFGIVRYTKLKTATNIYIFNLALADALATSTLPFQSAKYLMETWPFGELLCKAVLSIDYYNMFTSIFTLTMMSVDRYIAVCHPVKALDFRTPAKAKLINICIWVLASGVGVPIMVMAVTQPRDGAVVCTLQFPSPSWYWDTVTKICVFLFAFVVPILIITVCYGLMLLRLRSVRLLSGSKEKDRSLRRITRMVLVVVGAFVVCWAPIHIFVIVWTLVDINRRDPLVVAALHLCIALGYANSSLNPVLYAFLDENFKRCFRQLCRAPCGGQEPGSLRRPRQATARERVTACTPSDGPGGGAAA
Opioid receptors; mu & delta (Rattus norvegicus), sequence (P33533 whole entry, looked up): as the sequence (P33533 whole entry) above
Opioid receptors; mu & delta (Rattus norvegicus), sequence (P33535 whole entry, looked up): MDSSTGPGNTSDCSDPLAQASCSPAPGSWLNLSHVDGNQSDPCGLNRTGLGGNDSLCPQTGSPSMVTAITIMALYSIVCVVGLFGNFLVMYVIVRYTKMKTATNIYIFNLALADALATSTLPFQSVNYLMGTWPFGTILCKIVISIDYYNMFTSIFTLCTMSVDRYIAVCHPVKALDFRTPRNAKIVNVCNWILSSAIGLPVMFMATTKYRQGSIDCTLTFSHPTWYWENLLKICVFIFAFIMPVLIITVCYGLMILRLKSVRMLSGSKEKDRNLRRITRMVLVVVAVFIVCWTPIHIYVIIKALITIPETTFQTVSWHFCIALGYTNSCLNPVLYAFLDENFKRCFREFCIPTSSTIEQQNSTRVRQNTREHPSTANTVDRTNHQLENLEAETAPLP
Mu-type opioid receptor (Rattus norvegicus, UniProt P33535), sequence (P33535 whole entry): as the sequence (P33535 whole entry, looked up) above
Mu-type opioid receptor (Cavia porcellus), sequence (P97266 whole entry): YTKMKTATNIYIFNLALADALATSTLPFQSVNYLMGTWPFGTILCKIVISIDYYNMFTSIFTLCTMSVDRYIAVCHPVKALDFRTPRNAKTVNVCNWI
T2 sequence (P97266 whole entry): as above
T1 sequence (P32300 whole entry): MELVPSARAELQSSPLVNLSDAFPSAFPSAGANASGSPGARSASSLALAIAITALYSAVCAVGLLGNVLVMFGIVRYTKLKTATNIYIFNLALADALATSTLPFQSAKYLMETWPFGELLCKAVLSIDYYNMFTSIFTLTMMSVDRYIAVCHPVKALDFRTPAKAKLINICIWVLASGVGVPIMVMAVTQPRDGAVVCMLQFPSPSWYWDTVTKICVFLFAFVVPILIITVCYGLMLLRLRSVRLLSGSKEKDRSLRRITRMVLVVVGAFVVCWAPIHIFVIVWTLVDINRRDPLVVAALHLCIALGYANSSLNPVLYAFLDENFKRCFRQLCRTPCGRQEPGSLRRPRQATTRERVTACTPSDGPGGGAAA
Delta-type opioid receptor (Mus musculus), sequence (P32300 whole entry): as above

In the case of `Cc1cc(O)cc(C)c1C[C@H](N)C(=O)N1Cc2ccccc2CC1C(=O)NCc1nc(O)c(CNC(=O)C2Cc3ccccc3CN2C(=O)[C@@H](N)Cc2c(C)cc(O)cc2C)nc1C` (stereo partly specified), the Ki in assay [1] amounted to 3.76 nM; in assay [4], 0.163 nM. In addition, the IC50 in assay [2] and in assay [8] was more than 10000 nM each time. The Activity in assay [3] was less than 15%; in [7] it was less than 1%. The Ratio Ki in [5] was 23. In assay [6], the Kb is 0.00603 nM.
With `Cc1cc(O)cc(C)c1C[C@@H](C(=O)N1Cc2ccccc2CC1C(=O)NCCCCCCNC(=O)C1Cc2ccccc2CN1C(=O)[C@H](Cc1c(C)cc(O)cc1C)N(C)C)N(C)C` (stereo partly specified), the Ki in [1] worked out at 2.21 nM; in [4], 0.06 nM. The IC50 in [2] and in assay [8] was more than 10000 nM throughout. Besides, the Activity in assay [3] and in assay [7] was less than 1% in each case. Also, the Kb in [9] is 4.57 nM; in assay [6] it was 0.00525 nM. For the same molecule, the Ratio Ki in [5] was 37.
`Cc1cc(O)cc(C)c1C[C@H](N)C(=O)N1Cc2ccccc2CC1C(=O)NCCCCc1nc(O)c(CCNC(=O)C2Cc3ccccc3CN2C(=O)[C@@H](N)Cc2c(C)cc(O)cc2C)nc1C` (stereo partly specified): the Ki came to 1.37 nM in assay [1] and 0.107 nM in assay [4]. The IC50 in [2] and in [8] was more than 10000 nM each time. The Activity in assay [3] was less than 44%; in [7], less than 1%. Besides, the Ratio Ki in [5] was found to be 13. The Kb in assay [6] was 0.0102 nM.
As for `Cc1cc(O)cc(C)c1C[C@H](N)C(=O)N1Cc2ccccc2CC1C(=O)NCCCCCCNC(=O)C1Cc2ccccc2CN1C(=O)[C@@H](N)Cc1c(C)cc(O)cc1C` (stereo partly specified), the Ki in assay [1] was 1.79 nM; in [4], 0.129 nM. Further, in assay [2], the IC50 was more than 10000 nM. Further, the Kb in assay [6] was 0.024 nM. In assay [7], this molecule registered an Activity of less than 1%.
As to `Cc1cc(O)cc(C)c1C[C@H](N)C(=O)N1Cc2ccccc2CC1C(=O)NCCCCNC(=O)C1Cc2ccccc2CN1C(=O)[C@@H](N)Cc1c(C)cc(O)cc1C` (stereo partly specified), the Ki is 5.72 nM in assay [1] and 0.124 nM in assay [4]. Moreover, the concentration for half-maximal inhibition (IC50) in [2] and in assay [8] was more than 10000 nM each time. The results for the Activity in assay [3] and in [7] were less than 16% and less than 1%, respectively. The results for the Kb in [9] and in [6] were 102 nM and 0.0309 nM, respectively. The Ratio Ki in assay [5] is 46.
For `Cc1cc(O)cc(C)c1C[C@H](N)C(=O)N1Cc2ccccc2CC1C(=O)NCCCCc1nc(C)c(CCCNC(=O)C2Cc3ccccc3CN2C(=O)[C@@H](N)Cc2c(C)cc(O)cc2C)nc1O` (stereo partly specified), the Ki in [1] was determined as 2.28 nM; in [4], 0.092 nM. The IC50 in assay [2] and in assay [8] was more than 10000 nM each time. Also, the Activity in [3] is less than 9%; in assay [7], 22%. The results for the Kb in assay [9] and in assay [6] were 112 nM and 0.0339 nM, respectively. In addition, in assay [5], the Ratio Ki came to 25.
Turning to `Cc1cc(O)cc(C)c1C[C@H](N)C(=O)N1Cc2ccccc2CC1C(=O)NCCCc1nc(O)c(CCCNC(=O)C2Cc3ccccc3CN2C(=O)[C@@H](N)Cc2c(C)cc(O)cc2C)nc1C` (stereo partly specified), the figures for the Ki in [1] and in assay [4] were 3.08 nM and 0.155 nM, respectively. Also, the results for the IC50 in [2] and in [8] were more than 10000 nM and 7020 nM, respectively. Besides, the Ratio Ki in [5] is 20. Moreover, the Kb in assay [6] is 0.0275 nM. The Activity in assay [7] is less than 1%.
For the molecule `Cc1cc(O)cc(C)c1C[C@@H](C(=O)N1Cc2ccccc2CC1C(=O)NCCCc1nc(O)c(CCCNC(=O)C2Cc3ccccc3CN2C(=O)[C@H](Cc2c(C)cc(O)cc2C)N(C)C)nc1C)N(C)C` (stereo partly specified), the Ki in assay [1] came to 1.68 nM; in assay [4], 0.287 nM. The IC50 in [2] and in [8] was more than 10000 nM in each case. Also, the Activity in assay [3] and in assay [7] was less than 1% throughout. For the same molecule, the Kb in [9] is 19.5 nM; in assay [6], 0.038 nM. In addition, the Ratio Ki in assay [5] was 6.
Take `Cc1cc(O)cc(C)c1C[C@H](N)C(=O)N1Cc2ccccc2CC1C(=O)NCCCCCCCCCCNC(=O)C1Cc2ccccc2CN1C(=O)[C@@H](N)Cc1c(C)cc(O)cc1C` (stereo partly specified): the results for the Ki in [1] and in assay [4] were 4.86 nM and 1.53 nM, respectively. Further, the IC50 is more than 10000 nM in assay [2] and 5420 nM in assay [8]. Also, the Ratio Ki in [5] was determined as 3. In addition, the Kb in assay [6] is 0.0107 nM. For the same molecule, in assay [7], the Activity is less than 28%.
On to `Cc1cc(O)cc(C)c1C[C@H](N)C(=O)N1Cc2ccccc2CC1C(=O)NCCc1nc(O)c(CCNC(=O)C2Cc3ccccc3CN2C(=O)[C@@H](N)Cc2c(C)cc(O)cc2C)nc1C` (stereo partly specified), for which the Ki in assay [1] was determined as 2.83 nM; in assay [4] it was 0.095 nM. The IC50 in assay [2] and in assay [8] was more than 10000 nM each time. For the same molecule, the Activity in assay [3] was less than 27%; in assay [7] it was less than 1%. Further, the Kb is 166 nM in assay [9] and 0.0186 nM in [6]. In assay [5], the Ratio Ki worked out at 30.
`Cc1cc(O)cc(C)c1C[C@H](N)C(=O)N1Cc2ccccc2CC1C(=O)NCCCCc1[nH]c(=O)c(CCCNC(=O)C2Cc3ccccc3CN2C(=O)[C@@H](N)Cc2c(C)cc(O)cc2C)nc1C` (stereo partly specified): the values for the Ki in assay [1] and in assay [4] were 1.56 nM and 0.16 nM, respectively. Further, the IC50 in assay [2] and in assay [8] was more than 10000 nM each time. The Kb in assay [6] is 0.0251 nM.
For the molecule `Cc1cc(O)cc(C)c1C[C@H](N)C(=O)N1Cc2ccccc2CC1C(=O)NCCCCc1nc(O)c(CCCCNC(=O)C2Cc3ccccc3CN2C(=O)[C@@H](N)Cc2c(C)cc(O)cc2C)nc1C` (stereo partly specified), the results for the Ki in assay [1] and in assay [4] were 1.74 nM and 0.323 nM, respectively. Further, the IC50 in assay [2] and in assay [8] was more than 10000 nM throughout. The Activity is less than 34% in assay [3] and less than 1% in [7]. Moreover, the Ratio Ki in assay [5] amounted to 5. In addition, the Kb in [6] was 0.00871 nM.
As to `Cc1cc(O)cc(C)c1C[C@H](N)C(=O)N1Cc2ccccc2CC1C(=O)NCCCCc1nc(O)c(CCCNC(=O)C2Cc3ccccc3CN2C(=O)[C@@H](N)Cc2c(C)cc(O)cc2C)nc1C` (stereo partly specified), the results for the Activity in assay [3] and in assay [7] were less than 1% and less than 10%, respectively. In addition, the Ratio Ki in assay [5] came to 10.
